Results on one compound are retold here after publication PMC8567874, “Metronomic delivery of orally available pemetrexed-incorporated colloidal dispersions for boosting tumor-specific immunity” (Drug Delivery, 2021).

The nature of data set [1]: In vivo pharmacokinetic study in rats. More on the design: species or system Sprague–Dawley (SD) rats. The method, then: The separated plasma samples were kept at −80 °C before analysis and the drug concentration in each plasma sample was determined by LC-MS. […] Agilent Technologies, Santa Clara, CA, USA), conditioned with 500 µL of methanol, followed by 500 µL of deionized water. After loading the standards or samples into the cartridges, the unadsorbed particles were washed out with 500 µL of deionized water and methanol. […] PMX and IS were ionized using electrospray ionization (ESI) source in positive ion mode under a capillary voltage of 3.5 kV, drying gas flow rate of 3.1 L/min, and drying gas temperature of 300 °C. […] Pharmacokinetic parameters were estimated using a non-compartmental model in WinNonlin® software (ver. 5.3; Pharsight Corp., Mountain View, CA, USA). All data were expressed as means ± standard deviations (SDs), or standard errors of the mean (SEMs). Statistical analysis was performed by one-way analysis of variance (ANOVA) followed by Tukey’s multiple comparison test for unpaired data with more than three means. In all analyses, p < .05 was taken to indicate statistical significance.

In the next data set the test system is CT26.CL25 cells. Kind of data set: Immunofluorescence (confocal) analysis of ICD induction. The format is cell-based. The note with it: CT26.CL25, 300 µM, 48 h, confocal microscopy. The method, then: CT26.CL25 cells, cultured in coverslips at 1 × 10^4 cell density, were treated with 300 µM DL, 300 µM PMX, or PMX/DL (equivalent to 300 µM PMX) for 48 h. The PMX dose was converted from the Cmax of the pharmacokinetic profile in patients treated with 500 mg/m^2 PMX-IV (Li et al., [2007]). The cells were then washed with PBS, fixed in 10% formalin solution, and incubated with a cell membrane marker, Texas Red-X conjugated wheat germ agglutinin solution (5 µg/mL), for 10 min at room temperature. The cells were washed and permeabilized with 1% Triton-X solution for 40 min at room temperature. The cells were then incubated overnight with primary anti-CRT (1:200) or anti-HMGB-1 (1:200) antibodies at 4 °C after washing with PBS. On the following day, the cells were washed and incubated with secondary anti-rabbit Alexa Fluor 488 (1:400; Invitrogen; Thermo Fisher Scientific) for 1 h at room temperature and then stained with DAPI. Confocal laser scanning microscopy (TCS SP8; Leica Microsystems, Wetzlar, Germany) was used to obtain images.

Data set [2] in a line: In vitro Caco-2 cell monolayer permeability. The format is in vitro ADME. The note with it: human, equivalent to 50 µg/mL PMX, n = 7, read-out: Apparent permeability (Papp). As for the experimental part: To compare the in vitro apparent permeability (Papp) of PMX, PMX/DL(1:1), PMX/DL(1:2), PMX/DL(1:1)-CD, and PMX/DL(1:2)-CD across a Caco-2 (ATCC® HTB-37™; American Type Culture Collection, Manassas, VA, USA) cell monolayer, Caco-2 cells were seeded onto 24-well Transwell® filter inserts in Dulbecco's modified Eagle's medium (DMEM) containing 10% (v/v) fetal bovine serum and 1% penicillin/streptomycin, at a density of 1 × 10^5 cells/well, cultured for 14–16 days to form a confluent monolayer with the transepithelial electrical resistance (TEER) >350 Ω·cm^2. After the media in the apical and basolateral compartments were replaced with Hank’s balanced salt solution (HBSS) and stabilized for 20 min at 37 °C, 100 µL of the drug solution diluted with HBSS (equivalent to 50 µg/mL PMX) and 600 µL of HBSS were loaded into the apical and basolateral compartments in each well, respectively. During incubation at 37 °C, 100 µL of sample solution was withdrawn from each basolateral compartment, and the volume was replaced using fresh HBSS at 0.5, 1, 2, 3, 4, and 5 h. After passing through a polyvinylidene fluoride (PVDF) membrane filter (pore size: 0.45 µm), the concentration of PMX in each sample solution was measured using the HPLC system at 254 nm, with a Luna C18 column (4.6 × 250 mm, 5 µm, 100 Å) at 25 °C. […]
On the technique in general: Passage across Caco-2 layers is used to estimate intestinal permeability.

The mark [3] stands for this setting: Sprague-Dawley, rat, plasma, IV, 10 mg/kg PMX.
[4] abbreviates: Sprague-Dawley, rat, plasma, oral, 20 mg/kg PMX.

Molecules are shown by their SMILES. Where two headings read alike, the source gives them in different places.

As usually defined, the Cmax is the highest concentration seen after dosing. A word on the bioavailability: it is dose-corrected exposure relative to a reference, in per cent. One may read the AUC(0-inf) as total exposure, with the tail of the curve extrapolated. A higher AUC(0-inf) goes with high exposure. As a reminder, the AUC(0-t) is exposure summed from dosing to a finite time, without extrapolation to infinity. As usually defined, the half-life is the time in which the quantity being followed falls by half. Lower therefore signals rapid decline. The Tmax is the time from dosing to the highest level. In general, Papp refers to the rate of passage across a membrane or cell layer, normalised by area and donor concentration. In data set [1] (IV, 10 mg/kg PMX), `Nc1nc2[nH]cc(CCc3ccc(C(=O)N[C@@H](CCC(=O)O)C(=O)O)cc3)c2c(=O)[nH]1` [PMX, Pemetrexed] registered a Cmax of 32300 ± 1220 ng/mL. This compound showed a bioavailability in data set [1] (IV, 10 mg/kg PMX (reference)) of 100%. Also, in data set [1] (setting [3]), the area under the curve AUC(0-inf) amounted to 25300 ± 3560 ng·h/mL, the exposure AUC(0-t) was 25100 ± 3560 ng·h/mL and the half-life is 57.2 ± 2.58 min. Moreover, in data set [1] (setting [4]), the AUC(0-inf) stood at 8960 ± 89 ng·h/mL, the AUC(0-t) was determined as 3930 ± 380 ng·h/mL, the Tmax worked out at 30 min and the half-life is 786 ± 109 min. The bioavailability in data set [1] (Sprague-Dawley, rat, plasma, oral, 20 mg/kg PMX, read-out: Bioavailability) stood at 7.8 ± 0.755%. The maximum concentration (Cmax) in data set [1] (Sprague-Dawley, rat, plasma, oral, 20 mg/kg PMX, read-out: Cmax) is 579 ± 73 ng/mL. In the data set on CT26.CL25 cells, the “CRT-fluorescence compared to controls and DL-treated cells” value is recorded as “more intense”; the “HMGB-1-release compared to controls and DL-treated cells” value is listed as “higher”. In data set [2], the apparent permeability (Papp) at 5 h, 50 µg/mL was 1.2 ± 0.349 ×10⁻⁶ cm/s.
